Measurements published in ChEMBL document CHEMBL1157997, “A new biologically active acylated triterpene saponin from Silene fortunei” (J Nat Prod, 1999).

Assays:
[1] = Cytotoxicity against human neutrophil granulocytes upto 100 ug/mL
[2] = Enhancement of human neutrophil granulocytes phagocytosis at 10 to 100 ug/mL by flow cytometric analysis; type: functional

In the case of `CC(=O)O[C@@H]1[C@H](O[C@@H]2O[C@H](CO)[C@@H](O)[C@H](O)[C@H]2O)[C@@H](O[C@@H]2O[C@@H](C)[C@H](O[C@@H]3OC[C@@H](O)[C@H](O)[C@H]3O[C@@H]3OC[C@H](O)[C@H](O)[C@H]3O[C@@H]3OC[C@H](O)[C@H](O)[C@H]3O)[C@@H](O)[C@H]2O)[C@H](OC(=O)[C@]23CCC(C)(C)C[C@H]2C2=CC[C@@H]4[C@@]5(C)CC[C@H](O[C@@H]6O[C@H](C(=O)O)[C@@H](O)[C@H](O)[C@H]6O[C@@H]6O[C@H](CO)[C@H](O)[C@H](O)[C@H]6O)[C@@](C)(C=O)C5=CC[C@@]4(C)[C@]2(C)C[C@H]3O)O[C@@H]1C`, the Activity [1] is reported as “Non-toxic” and the Activity [2] is reported as 24%.
